Source: ChEMBL document CHEMBL1909046, “DrugMatrix in vitro pharmacology data”

Key:
Estrogen receptor beta = Estrogen receptor beta (Homo sapiens, UniProt Q92731); conditions: sf9
Glucocorticoid receptor = target: T1, Glucocorticoid receptor (Homo sapiens, UniProt P04150); conditions: hela s3
T1 sequence (P04150 whole entry): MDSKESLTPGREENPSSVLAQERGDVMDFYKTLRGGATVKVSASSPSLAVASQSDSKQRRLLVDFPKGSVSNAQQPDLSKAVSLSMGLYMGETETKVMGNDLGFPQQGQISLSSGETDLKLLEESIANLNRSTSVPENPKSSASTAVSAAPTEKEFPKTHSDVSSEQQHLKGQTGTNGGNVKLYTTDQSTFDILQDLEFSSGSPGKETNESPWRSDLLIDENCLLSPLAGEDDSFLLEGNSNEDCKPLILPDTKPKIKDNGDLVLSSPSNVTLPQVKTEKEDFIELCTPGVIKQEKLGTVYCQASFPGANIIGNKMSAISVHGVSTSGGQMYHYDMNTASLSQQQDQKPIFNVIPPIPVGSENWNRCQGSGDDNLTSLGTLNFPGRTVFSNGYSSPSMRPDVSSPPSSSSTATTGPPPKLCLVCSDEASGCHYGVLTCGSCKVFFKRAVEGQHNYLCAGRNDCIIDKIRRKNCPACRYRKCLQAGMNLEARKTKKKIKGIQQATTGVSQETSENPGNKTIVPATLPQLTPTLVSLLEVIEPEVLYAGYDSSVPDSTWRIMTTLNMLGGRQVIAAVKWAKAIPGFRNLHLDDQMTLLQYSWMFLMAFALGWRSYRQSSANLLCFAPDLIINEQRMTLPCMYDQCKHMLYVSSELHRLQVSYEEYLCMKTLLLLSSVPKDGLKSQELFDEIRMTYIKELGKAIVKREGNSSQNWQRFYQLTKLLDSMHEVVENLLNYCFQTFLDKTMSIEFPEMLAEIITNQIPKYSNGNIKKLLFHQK

Leukotriene C4 synthase = target: T2, Leukotriene C4 synthase (Cavia porcellus, UniProt A6XA80); assay type: tissue-based, Lung;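 further: enzyme inhibition assay of leukotriene C4 synthase, using LTA4 as the substrate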
T2 sequence (A6XA80 whole entry): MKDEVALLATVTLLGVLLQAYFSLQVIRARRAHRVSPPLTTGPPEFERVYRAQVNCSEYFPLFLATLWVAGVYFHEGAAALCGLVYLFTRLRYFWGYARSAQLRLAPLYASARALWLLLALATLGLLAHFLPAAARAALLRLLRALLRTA

[1] = target: T3, Nitric oxide synthase, inducible (Mus musculus, UniProt P29477); set-up: species or system Escherichia coli;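 further: inhibition of iNOS enzyme activity measured with L-arginine as substrate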
T3 sequence (P29477 whole entry): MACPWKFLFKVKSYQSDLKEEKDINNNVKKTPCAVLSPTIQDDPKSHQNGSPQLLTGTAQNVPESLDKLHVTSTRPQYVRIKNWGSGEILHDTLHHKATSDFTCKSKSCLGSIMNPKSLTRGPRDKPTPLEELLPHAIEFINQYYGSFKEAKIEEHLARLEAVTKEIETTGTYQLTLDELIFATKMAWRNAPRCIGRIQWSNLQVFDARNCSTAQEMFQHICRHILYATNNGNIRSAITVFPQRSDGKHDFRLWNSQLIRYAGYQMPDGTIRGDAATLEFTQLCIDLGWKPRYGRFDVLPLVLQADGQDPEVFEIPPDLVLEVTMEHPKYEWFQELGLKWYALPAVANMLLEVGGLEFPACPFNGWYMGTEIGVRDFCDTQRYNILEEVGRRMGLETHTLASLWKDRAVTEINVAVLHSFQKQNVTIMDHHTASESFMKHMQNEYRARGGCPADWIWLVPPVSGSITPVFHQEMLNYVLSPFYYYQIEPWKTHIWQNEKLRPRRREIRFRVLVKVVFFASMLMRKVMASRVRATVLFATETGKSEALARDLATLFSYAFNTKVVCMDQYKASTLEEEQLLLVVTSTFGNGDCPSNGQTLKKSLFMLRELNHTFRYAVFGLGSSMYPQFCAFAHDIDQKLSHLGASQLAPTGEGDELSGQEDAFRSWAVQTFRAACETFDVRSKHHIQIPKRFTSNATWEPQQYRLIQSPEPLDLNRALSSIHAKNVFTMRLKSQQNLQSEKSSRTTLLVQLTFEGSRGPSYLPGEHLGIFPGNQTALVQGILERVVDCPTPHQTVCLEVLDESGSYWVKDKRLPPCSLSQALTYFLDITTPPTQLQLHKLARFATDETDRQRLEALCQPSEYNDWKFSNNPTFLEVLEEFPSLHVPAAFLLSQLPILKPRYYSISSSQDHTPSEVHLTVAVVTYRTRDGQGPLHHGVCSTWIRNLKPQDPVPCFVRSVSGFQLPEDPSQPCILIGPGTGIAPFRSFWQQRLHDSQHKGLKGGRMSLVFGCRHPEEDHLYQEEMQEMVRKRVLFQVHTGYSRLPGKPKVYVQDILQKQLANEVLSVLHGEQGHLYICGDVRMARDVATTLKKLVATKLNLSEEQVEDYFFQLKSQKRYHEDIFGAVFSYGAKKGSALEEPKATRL

[2] = target: Voltage-gated inwardly rectifying potassium channel KCNH2 (Homo sapiens, UniProt Q12809); conditions: hek293
[3] = target: Vascular endothelial growth factor receptor 1 (Homo sapiens, UniProt P17948); experiment: biochemical; assay type: cell-based, HUVEC
[4] = target: C-C chemokine receptor type 2 (Homo sapiens, UniProt P41597); assay type: cell membranes, CHO-K1, Membrane; conditions: cho-k1
Neutrophil elastase = target: T4, Neutrophil elastase (Homo sapiens, UniProt P08246); assay type: tissue-based;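 further: inhibition of neutrophil elastase enzyme activity, measured with a p-nitroanilide-linked peptide substrate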
T4 sequence (P08246 whole entry): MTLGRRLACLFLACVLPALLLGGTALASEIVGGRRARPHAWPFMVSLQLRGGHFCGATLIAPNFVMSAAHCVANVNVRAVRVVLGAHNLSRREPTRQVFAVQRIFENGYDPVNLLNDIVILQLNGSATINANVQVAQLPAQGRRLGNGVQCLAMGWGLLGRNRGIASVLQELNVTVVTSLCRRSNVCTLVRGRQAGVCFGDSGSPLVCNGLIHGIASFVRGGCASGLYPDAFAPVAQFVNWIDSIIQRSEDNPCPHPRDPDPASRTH
Further: in other assays of this panel Not Active means under 50% inhibition at 10 µM.

Chain of Voltage-gated inwardly rectifying potassium channel KCNH2 (Q12809 whole entry): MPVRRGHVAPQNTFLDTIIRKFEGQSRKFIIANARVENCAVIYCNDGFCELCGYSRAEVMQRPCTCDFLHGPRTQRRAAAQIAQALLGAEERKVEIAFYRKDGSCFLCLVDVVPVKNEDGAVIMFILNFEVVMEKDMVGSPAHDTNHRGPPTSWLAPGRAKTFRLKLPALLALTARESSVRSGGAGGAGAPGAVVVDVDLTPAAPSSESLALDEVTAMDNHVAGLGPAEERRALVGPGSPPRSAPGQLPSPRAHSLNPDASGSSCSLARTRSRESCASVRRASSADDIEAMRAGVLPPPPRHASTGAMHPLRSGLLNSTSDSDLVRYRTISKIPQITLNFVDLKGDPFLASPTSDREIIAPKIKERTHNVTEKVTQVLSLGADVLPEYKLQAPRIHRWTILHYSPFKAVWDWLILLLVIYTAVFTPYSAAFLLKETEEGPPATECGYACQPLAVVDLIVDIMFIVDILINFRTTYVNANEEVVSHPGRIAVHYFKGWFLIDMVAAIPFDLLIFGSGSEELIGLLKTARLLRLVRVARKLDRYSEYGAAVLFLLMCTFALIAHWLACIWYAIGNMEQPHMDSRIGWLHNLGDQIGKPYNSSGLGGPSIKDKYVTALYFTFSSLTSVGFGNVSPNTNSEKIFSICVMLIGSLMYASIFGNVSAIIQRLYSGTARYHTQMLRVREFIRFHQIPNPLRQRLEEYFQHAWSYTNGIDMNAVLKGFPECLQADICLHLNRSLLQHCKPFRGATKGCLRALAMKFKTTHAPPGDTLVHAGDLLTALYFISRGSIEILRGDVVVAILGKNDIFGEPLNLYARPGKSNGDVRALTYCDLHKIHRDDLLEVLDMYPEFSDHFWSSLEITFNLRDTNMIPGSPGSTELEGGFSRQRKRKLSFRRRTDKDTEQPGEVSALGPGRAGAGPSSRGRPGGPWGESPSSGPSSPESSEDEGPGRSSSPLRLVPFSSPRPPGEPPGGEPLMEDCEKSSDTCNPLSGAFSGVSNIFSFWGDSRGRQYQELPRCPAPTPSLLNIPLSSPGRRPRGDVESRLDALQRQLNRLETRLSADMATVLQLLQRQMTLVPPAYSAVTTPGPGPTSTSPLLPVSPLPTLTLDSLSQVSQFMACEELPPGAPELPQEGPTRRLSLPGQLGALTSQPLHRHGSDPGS
Chain of Vascular endothelial growth factor receptor 1 (P17948 whole entry): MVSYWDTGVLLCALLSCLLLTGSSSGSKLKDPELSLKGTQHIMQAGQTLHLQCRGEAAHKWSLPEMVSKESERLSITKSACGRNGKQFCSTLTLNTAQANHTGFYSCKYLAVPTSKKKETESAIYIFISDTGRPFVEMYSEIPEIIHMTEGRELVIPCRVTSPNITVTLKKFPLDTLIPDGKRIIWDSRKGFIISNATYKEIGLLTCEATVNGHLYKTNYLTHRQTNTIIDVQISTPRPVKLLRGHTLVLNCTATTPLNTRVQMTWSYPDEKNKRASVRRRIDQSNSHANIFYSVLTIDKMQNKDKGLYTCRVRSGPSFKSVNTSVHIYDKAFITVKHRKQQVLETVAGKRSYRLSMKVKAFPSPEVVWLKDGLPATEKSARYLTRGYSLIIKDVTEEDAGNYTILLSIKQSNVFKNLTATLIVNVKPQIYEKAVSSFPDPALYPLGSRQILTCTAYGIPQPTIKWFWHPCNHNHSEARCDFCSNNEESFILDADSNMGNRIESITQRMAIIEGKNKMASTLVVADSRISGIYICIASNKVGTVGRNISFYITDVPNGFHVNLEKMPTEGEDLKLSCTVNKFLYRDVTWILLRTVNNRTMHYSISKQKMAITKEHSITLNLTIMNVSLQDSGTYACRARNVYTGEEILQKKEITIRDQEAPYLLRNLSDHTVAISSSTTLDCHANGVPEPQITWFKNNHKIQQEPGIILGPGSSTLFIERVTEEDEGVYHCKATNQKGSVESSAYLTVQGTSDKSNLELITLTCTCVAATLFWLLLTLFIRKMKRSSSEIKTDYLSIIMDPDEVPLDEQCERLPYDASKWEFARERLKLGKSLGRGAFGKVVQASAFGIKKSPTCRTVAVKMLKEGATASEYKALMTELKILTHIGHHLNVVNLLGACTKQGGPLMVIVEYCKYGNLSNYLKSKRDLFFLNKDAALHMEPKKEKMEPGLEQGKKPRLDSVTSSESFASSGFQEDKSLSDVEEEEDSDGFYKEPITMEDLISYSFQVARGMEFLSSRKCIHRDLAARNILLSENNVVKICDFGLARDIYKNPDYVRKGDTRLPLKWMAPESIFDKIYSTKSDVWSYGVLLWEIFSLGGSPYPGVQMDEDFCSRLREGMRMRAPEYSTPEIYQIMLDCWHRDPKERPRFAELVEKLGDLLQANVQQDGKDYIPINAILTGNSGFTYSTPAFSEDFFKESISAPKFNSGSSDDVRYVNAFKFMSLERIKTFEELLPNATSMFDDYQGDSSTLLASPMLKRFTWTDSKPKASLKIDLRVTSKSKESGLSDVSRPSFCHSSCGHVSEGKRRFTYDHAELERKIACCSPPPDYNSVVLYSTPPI
Chain of C-C chemokine receptor type 2 (P41597 whole entry): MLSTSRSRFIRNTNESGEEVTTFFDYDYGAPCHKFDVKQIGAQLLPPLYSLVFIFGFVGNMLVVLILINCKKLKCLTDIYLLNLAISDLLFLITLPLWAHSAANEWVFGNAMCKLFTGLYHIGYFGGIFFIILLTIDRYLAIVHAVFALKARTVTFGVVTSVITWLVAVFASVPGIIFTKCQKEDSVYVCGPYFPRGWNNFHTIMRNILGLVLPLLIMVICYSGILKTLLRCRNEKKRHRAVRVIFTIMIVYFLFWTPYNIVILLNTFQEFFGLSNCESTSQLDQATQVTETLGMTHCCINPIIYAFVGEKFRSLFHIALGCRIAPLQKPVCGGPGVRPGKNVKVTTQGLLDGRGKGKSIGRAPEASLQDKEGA
Chain of Estrogen receptor beta (Q92731 whole entry): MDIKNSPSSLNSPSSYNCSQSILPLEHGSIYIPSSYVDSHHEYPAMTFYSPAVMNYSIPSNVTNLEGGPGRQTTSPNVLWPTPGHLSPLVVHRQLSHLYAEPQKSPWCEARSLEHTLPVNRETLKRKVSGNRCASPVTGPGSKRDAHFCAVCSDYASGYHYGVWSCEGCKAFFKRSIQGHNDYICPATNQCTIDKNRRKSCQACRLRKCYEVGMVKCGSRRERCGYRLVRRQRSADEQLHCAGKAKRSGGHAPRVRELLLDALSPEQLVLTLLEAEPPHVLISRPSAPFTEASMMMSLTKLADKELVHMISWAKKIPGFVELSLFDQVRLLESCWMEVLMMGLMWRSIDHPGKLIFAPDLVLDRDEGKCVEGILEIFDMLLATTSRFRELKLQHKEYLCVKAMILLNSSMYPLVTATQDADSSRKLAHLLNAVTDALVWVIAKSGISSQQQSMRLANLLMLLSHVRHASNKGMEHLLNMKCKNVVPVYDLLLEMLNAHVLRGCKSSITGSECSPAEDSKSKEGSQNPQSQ

Compound	IC50 (Estrogen receptor beta)	IC50 (Glucocorticoid receptor)	IC50 (Leukotriene C4 synthase)	IC50 [1]	IC50 [2]	Ki [2]	IC50 ([3]; huvec)	IC50 [4]	IC50 (Neutrophil elastase)	IC50 ([3]; read-out: IC50) [nM]	Ki ([3]; read-out: Ki) [nM]
Nn1nnc2ccccc21	Not Active	Not Active	Not Active	Not Active	Not Active	Not Active	Not Active	Not Active	Not Active		
CC[C@]1(O)CC[C@H]2[C@@H]3CCC4=CCCC[C@@H]4[C@H]3CC[C@@]21C	Not Active	Not Active	Not Active	Not Active	Not Active	Not Active	Not Active	Not Active	Not Active		
N[C@@H](Cc1ccc(F)cc1)C(=O)O	Not Active	Not Active	Not Active	Not Active	Not Active	Not Active	Not Active	Not Active	Not Active		
CCOC(=O)[C@H](CCc1ccccc1)N[C@@H](C)C(=O)N1Cc2ccccc2C[C@H]1C(=O)O	Not Active	Not Active	Not Active	Not Active	Not Active	Not Active	Not Active	Not Active	Not Active		
O=C(c1ccccc1Cl)N1CCC(Cc2ccccc2)CC1	Not Active	Not Active	Not Active	Not Active	Not Active	Not Active	Not Active	Not Active	Not Active		
CCOC(=O)[C@H](CCc1ccccc1)N[C@@H](C)C(=O)N1CCC[C@H]1C(=O)O		Not Active	Not Active	Not Active	Not Active	Not Active	Not Active	Not Active	Not Active		
Clc1cc2c(cc1Cl)Oc1cc(Cl)c(Cl)cc1O2 [2,3,7,8-TETRACHLORODIBENZO-P-DIOXIN]	Not Active	Not Active	Not Active	Not Active	Not Active	Not Active		Not Active	Not Active	2.69	0.697
CC(C)C[C@H]1C(=O)N2CCC[C@H]2[C@]2(O)O[C@](NC(=O)[C@@H]3C=C4c5cccc6[nH]c(Br)c(c56)C[C@H]4N(C)C3)(C(C)C)C(=O)N12 [BROMOCRIPTINE]		Not Active	Not Active	Not Active	Not Active	Not Active	Not Active	Not Active	Not Active		
Nc1nc(Cl)nc2c1ncn2[C@H]1C[C@H](O)[C@@H](CO)O1 [CLADRIBINE]		Not Active	Not Active	Not Active	Not Active	Not Active	Not Active	Not Active	Not Active		
CC[C@H]1OC(=O)[C@H](C)[C@@H](O[C@H]2C[C@@](C)(OC)[C@@H](O)[C@H](C)O2)[C@H](C)[C@@H](O[C@@H]2O[C@H](C)C[C@H](N(C)C)[C@H]2O)[C@](C)(OC)C[C@@H](C)C(=O)[C@H](C)[C@@H](O)[C@]1(C)O [CLARITHROMYCIN]		Not Active	Not Active	Not Active	Not Active	Not Active	Not Active	Not Active	Not Active		
CCN[C@@H](C)Cc1cccc(C(F)(F)F)c1 [DEXFENFLURAMINE]		Not Active	Not Active	Not Active	Not Active	Not Active	Not Active	Not Active	Not Active		
CN1C(=O)CN=C(c2ccccc2)c2cc(Cl)ccc21 [DIAZEPAM]		Not Active	Not Active	Not Active			Not Active	Not Active	Not Active		
C=C(CC)C(=O)c1ccc(OCC(=O)O)c(Cl)c1Cl [ETHACRYNIC ACID]		Not Active	Not Active	Not Active	Not Active	Not Active	Not Active	Not Active	Not Active		
O=C(O)Cc1ccc(-c2ccccc2)cc1 [FELBINAC]		Not Active	Not Active	Not Active	Not Active	Not Active	Not Active	Not Active	Not Active		
Cc1cnc(C(=O)NCCc2ccc(S(=O)(=O)NC(=O)NC3CCCCC3)cc2)cn1 [GLIPIZIDE]	Not Active	Not Active	Not Active				Not Active	Not Active	Not Active		
C/C=C\c1ccc(O)c(OC)c1 [ISOEUGENOL]		Not Active	Not Active	Not Active			Not Active	Not Active	Not Active		
NC[C@H]1O[C@H](O[C@H]2[C@H](O)[C@@H](O[C@H]3O[C@H](CO)[C@@H](O)[C@H](N)[C@H]3O)[C@H](N)C[C@@H]2N)[C@H](O)[C@@H](O)[C@@H]1O [KANAMYCIN]		Not Active	Not Active	Not Active	Not Active	Not Active	Not Active	Not Active	Not Active		
CC[C@H](C)C(=O)O[C@H]1C[C@@H](C)C=C2C=C[C@H](C)[C@H](CC[C@@H]3C[C@@H](O)CC(=O)O3)[C@H]21 [LOVASTATIN]	Not Active	Not Active	Not Active	Not Active			Not Active	Not Active	Not Active		
COc1ccccc1OCC(O)COC(N)=O (centres undefined) [METHOCARBAMOL]		Not Active	Not Active	Not Active	Not Active	Not Active	Not Active	Not Active	Not Active		
OCCN1CCN(CCCN2c3ccccc3Sc3ccc(Cl)cc32)CC1 [PERPHENAZINE]	Not Active	Not Active	Not Active	Not Active			Not Active	Not Active	Not Active		
